Where “and” joins values, the source holds several entries; their conditions need not be identical. Identical values can stand only once. Like-named read-outs stand apart in the source and are kept apart here.
Experiments:
[1] = assay type: in vivo, human; settings: for AUC: AUC0–tn; for AUC(0-inf): AUC0–∞
[2] = assay type: in vivo, human; settings: for CL/F, arithmetic mean / Tmax: plasma; for CL/F, arithmetic mean: n = 24; for Tmax: male, human, po
[3] = assay type: in vivo, human; settings: for CL/F, arithmetic mean: N = 24; for AUC0‐∞, ratio amenamevir with ritonavir vs amenamevir alone / Cmax, ratio amenamevir with ritonavir vs amenamevir alone: ritonavir 600 mg; for AUC: AUC0‐∞; for AUC / Cmax: LS mean, n = 24; for Tmax: po
[4] = single oral dose of 200 mg ^14C‐amenamevir; ref unpublished data held by Maruho; cited from earlier work
[5] = ^14C‐amenamevir in humans; ref unpublished data held by Maruho; cited from earlier work
[6] = tested on: human multidrug resistance transporter P‐glycoprotein (P‐gp); settings: ^14C‐amenamevir, cells expressing P‐gp; ref unpublished data held by Maruho; cited from earlier work
OATP1B1 = settings: ^14C‐amenamevir, ref unpublished data held by Maruho; cited from earlier work
OATP1B3 = settings: ^14C‐amenamevir, ref unpublished data held by Maruho; cited from earlier work
OAT1 = settings: ^14C‐amenamevir, ref unpublished data held by Maruho; cited from earlier work
OAT3 = settings: ^14C‐amenamevir, ref unpublished data held by Maruho; cited from earlier work
[7] = tested on: organic cation uptake transporter‐2; settings: ^14C‐amenamevir, organic cation uptake transporter‐2–expressing cells; ref unpublished data held by Maruho; cited from earlier work
[8] = tested on: cytochrome P450 (CYP) 3A4/5; settings: human liver microsomes; ref unpublished data held by Maruho; cited from earlier work
CYP3A4 = settings: human hepatocytes, 1 to 100 μM; ref unpublished data held by Maruho; cited from earlier work
CYP3A4/5 = settings: read-out: half maximal inhibitory concentration, very weak or no inhibitory activity, ref unpublished data held by Maruho; cited from earlier work
[9] = tested on: acyclovir‐resistant VZV strains; settings: in vitro; cited from earlier work
[10] = amenamevir plus ketoconazole vs amenamevir alone; cited from earlier work
[11] = cited from earlier work
[12] = saquinavir with a single concomitant dose of 600‐mg ritonavir; cited from earlier work
[13] = amenamevir 400 mg with ritonavir 600 mg
[14] = amenamevir 1200 mg with ritonavir 600 mg
[15] = amenamevir 400‐mg or 1200‐mg with single 600‐mg dose of ritonavir
[16] = male, human, plasma, 1200 mg, amenamevir 1200 mg alone
[17] = male, human, plasma, amenamevir 400 mg with ritonavir 600 mg
[18] = male, human, plasma, amenamevir 1200 mg with ritonavir 600 mg
[19] = Day 12 midazolam 7.5 mg with amenamevir 400 mg vs Day 1 midazolam alone
[20] = Day 19, midazolam 7.5 mg alone, 7 days after last amenamevir dose, n = 18
[21] = after amenamevir 400 mg once daily for 10 days
[22] = male, human, plasma, oral, arithmetic mean, Day 12, midazolam 7.5 mg with amenamevir 400 mg (last of 10 daily doses), n = 18
[23] = male, human, plasma, oral, geometric mean, Day 12, midazolam 7.5 mg with amenamevir 400 mg (last of 10 daily doses), n = 18
[24] = male, human, plasma, oral, LS mean, Day 12, midazolam 7.5 mg with amenamevir 400 mg (last of 10 daily doses), n = 18
[25] = midazolam with rifampicin as inducer

Structure (SMILES): OCc1ncc2n1-c1ccc(Cl)cc1C(c1ccccc1F)=NC2 [1‐hydroxymidazolam]
- plasma concentrations, influence of coadministration of amenamevir ([1]; metabolite after midazolam 7.5 mg with amenamevir 400 mg): not influenced

Structure (SMILES): Cc1cccc(C)c1N(CC(=O)Nc1ccc(-c2ncon2)cc1)C(=O)C1CCS(=O)(=O)CC1 [amenamevir]
- CL/F, arithmetic mean ([2]; amenamevir 400 mg single oral dose alone (control)): 17.7 L/h
- CL/F, arithmetic mean ([2]; amenamevir 1200 mg single oral dose alone (control)): 25.7 L/h
- geometric mean (90%CI) AUC0‐∞ as % of that after amenamevir alone ([2]; amenamevir 1200 mg with cyclosporine 100 mg twice daily): ~79(73, 85) % and ~79%
- Tmax ([2]; 400 mg): 3 h
- Tmax ([2]; 1200 mg): 3 h
- CL/F, arithmetic mean ([3]; amenamevir 400 mg single oral dose alone, plasma): 18.3 L/h
- geometric mean AUC0‐∞, times higher than after amenamevir alone [3, 13]: about 2.6 times higher
- geometric mean Cmax, times higher than after amenamevir alone [3, 13]: about 1.4 times higher
- CL/F, arithmetic mean ([3]; amenamevir 400 mg with single dose ritonavir 600 mg): 6.8 L/h
- AUC0‐∞, ratio amenamevir with ritonavir vs amenamevir alone ([3]; amenamevir 400 mg): 260%
- Cmax, ratio amenamevir with ritonavir vs amenamevir alone ([3]; amenamevir 400 mg): 136%
- CL/F, arithmetic mean ([3]; amenamevir 1200 mg single oral dose alone, plasma): 25.7 L/h
- geometric mean AUC0‐∞, times higher than after amenamevir alone [3, 14]: ~3.3 times higher
- geometric mean Cmax, times higher than after amenamevir alone [3, 14]: ~1.6 times higher
- CL/F, arithmetic mean ([3]; amenamevir 1200 mg with single dose ritonavir 600 mg): 7.6 L/h
- AUC0‐∞, ratio amenamevir with ritonavir vs amenamevir alone ([3]; amenamevir 1200 mg): 334%
- Cmax, ratio amenamevir with ritonavir vs amenamevir alone ([3]; amenamevir 1200 mg): 163%
- increase in AUC [3, 15]: > 3 fold
- increase in Cmax [3, 15]: about 1.5 fold
- AUC ([3]; male, human, plasma, 400 mg, amenamevir 400 mg alone): 23200 ng·h/mL
- AUC [3, 16]: 48500 ng·h/mL
- Cmax [3, 16]: 3800 ng/mL
- AUC [3, 17]: 60200 ng·h/mL
- AUC [3, 18]: 162000 ng·h/mL
- Cmax [3, 17]: 2520 ng/mL
- Cmax [3, 18]: 6210 ng/mL
- half-life ([3]; male, human, plasma, geometric mean elimination half‐life, amenamevir alone, irrespective of the dose (400 mg and 1200 mg)): ~7 h
- Cmax ([3]; male, human, plasma, oral, 400 mg, amenamevir 400 mg alone): 1850 ng/mL
- Tmax ([3]; male, human, plasma, 400 mg): 3 h
- Tmax ([3]; male, human, plasma, 1200 mg): 3 h
- treatment‐emergent adverse event headache, frequency ([3]; with 400‐mg amenamevir (ritonavir study group)): 16.7%
- treatment‐emergent adverse event headache, frequency ([3]; with 1200‐mg amenamevir (ritonavir study group)): 29.2%
- ^14C radioactivity recovered in feces [4]: 74.6%
- plasma protein binding [5]: about 75%
- substrate of the human multidrug resistance P‐gp transporter [6]: is a substrate
- uptake into transporter‐expressing cells (OATP1B1): no uptake
- uptake into transporter‐expressing cells (OATP1B3): no uptake
- uptake into transporter‐expressing cells (OAT1): no uptake
- uptake into transporter‐expressing cells (OAT3): no uptake
- uptake into transporter‐expressing cells [7]: no uptake
- role of CYP3A4/5 in the metabolism of amenamevir [8]: main isozymes
- induction of CYP3A4 (CYP3A4): showed the potential to induce CYP3A4
- IC50 (CYP3A4/5): > 100 µM
- activity against acyclovir‐resistant VZV strains [9]: good activity
- geometric mean ratio for AUCinf (90%CI) [10]: 2.58 (90%CI, 2.32‐2.87)
- geometric mean ratio for Cmax (90%CI) [10]: 1.30 (90%CI, 1.17‐1.45)

Structure (SMILES): Cc1ncc2n1-c1ccc(Cl)cc1C(c1ccccc1F)=NC2 [midazolam]
- reduction in plasma concentrations of midazolam ([1]; CYP3A‐inducing effect of amenamevir): 52%
- CL/F, arithmetic mean ([1]; Day 1, midazolam 7.5 mg oral alone (control), plasma, n = 18): 68.5 L/h
- CL/F, arithmetic mean ([1]; Day 12, midazolam 7.5 mg with amenamevir 400 mg (last of 10 daily doses), n = 18): 134.3 L/h
- AUC0–∞, LS mean ratio vs control (90%CI) [1, 19]: ~51%
- Cmax, LS mean ratio vs control (90%CI) [1, 19]: about 68%
- CL/F, arithmetic mean [1, 20]: 63 L/h
- Tmax, median [1, 20]: 0.5 h
- AUC0–∞, LS mean ratio vs control ([1]; Day 19 midazolam alone vs Day 1 midazolam alone): 110%
- CL/F, arithmetic mean ([1]; Day 26, midazolam 7.5 mg alone, 14 days after last amenamevir dose, n = 18): 65.2 L/h
- AUC0–∞, LS mean ratio vs control ([1]; Day 26 midazolam alone vs Day 1 midazolam alone): 108%
- reduction of Cmax of midazolam [1, 21]: about 32%
- reduction of average concentrations (AUC) of midazolam [1, 21]: about 51%
- AUC [1, 22]: 59 ng·h/mL
- AUC [1, 23]: 56.7 ng·h/mL
- AUC(0-inf) [1, 24]: 58 ng·h/mL
- AUC(0-inf) [1, 22]: 60.3 ng·h/mL
- AUC(0-inf) [1, 23]: 58 ng·h/mL
- Cmax [1, 24]: 23 ng/mL
- Cmax [1, 22]: 24.5 ng/mL
- Cmax [1, 23]: 23.4 ng/mL
- half-life ([1]; male, human, plasma, oral, t1/2, arithmetic mean, Day 12, midazolam 7.5 mg with amenamevir 400 mg (last of 10 daily doses), n = 18): 3.7 h
- Tmax ([1]; male, human, plasma, po, 7.5 mg): 0.5 h
- mean elimination half‐life ([11]; midazolam before rifampicin): 3.2 h
- reduction of AUC [11, 25]: 64 fold
- reduction of Cmax [11, 25]: 27 fold

Structure (SMILES): CC(C)c1nc(CN(C)C(=O)N[C@H](C(=O)N[C@@H](Cc2ccccc2)C[C@H](O)[C@H](Cc2ccccc2)NC(=O)OCc2cncs2)C(C)C)cs1 [ritonavir, reference compound]
- t1/2, geometric mean ([3]; ritonavir 600 mg single dose with amenamevir 400 mg, n 24): 4.5 h

Structure (SMILES): CC(C)(C)NC(=O)[C@@H]1C[C@@H]2CCCC[C@@H]2CN1C[C@@H](O)[C@H](Cc1ccccc1)NC(=O)[C@H](CC(N)=O)NC(=O)c1ccc2ccccc2n1 [saquinavir]
- increase of plasma concentrations [12]: > 50 fold

From publication PMC6585933 (Clinical Pharmacology in Drug Development, 2018)
